Usually viability, T/C stands for the result in the treated group divided by that in the control group, in per cent. The term IC50 denotes the concentration at which inhibition is half-maximal.

This assay concerns 324938-238-R-J1-PDC complex spheroid viability. The experiment in a line: Anticancer human tumor 324938-238-R-J1-PDC patient-derived bladder carcinoma cell line growth inhibition. Particulars: for viability, T/C: stronger effect = lower value. The text has this: Multicellular complex tumor spheroid response to LSD1 Inhibitor Iadademstat in combination with a variety of drugs and investigational agents in selected tumor cell lines
The current study was undertaken to assess response to LSD1 inhibitors in combination with standard-of-care drugs and investigational agents in solid tumor complex spheroid models as well as in the K-562 leukemia. Complex spheroids include a stromal component modeled by human endothelial cells (HUVEC) and fibroblasts modeled by human mesenchymal stem cells (MSCs). The concentration ranges selected for each drug and investigational agent were based upon clinically achievable concentrations if the clinical Cmax of the agent was known.
Compounds. The drugs and investigational agents used in this study are listed on Table 1. All of the agents used, including staurosporine (NSC755774) and gemcitabine (NSC613327), were obtained from the Developmental Therapeutics Program, NCI. FDA-approved anticancer drugs are available from the NCI at http://dtp.nci.nih.gov/branches/dscb/oncology_drugset_explanation.html. Drugs and investigational agents were >95% pure by proton nuclear magnetic resonance (NMR) and liquid chromatography/mass spectrometry (LC/MS). Stock solutions were prepared at 400x in DMSO, stored at -70 degrees C, and diluted in fresh medium prior to their use. The final concentration of DMSO in cell culture wells never exceeded 0.25% (v/v). The FDA-approved anticancer drug set is available from the Developmental Therapeutics Program at https://dtp.cancer.gov/organization/dscb/obtaining/available_plates.htm. All drugs and investigational agents were tested over a range starting from a high concentration at or near the clinical Cmax and decreasing in half-log increments. If the clinical Cmax for an agent had not been determined, the highest concentration tested was 10 microM.
Cell Lines. The patient-derived cancer cell (PDC) lines: 292921-168-R-J2-PDC, K24384-001-R-PDC, and 521955-158-R2-J5-PDC pancreatic carcinomas, 556581-035-R-J1 ovarian carcinoma, 324938-238-R-J1-PDC, 855422-203-R-J1-PDC and 883617-216-R-J1-PDC urothelial bladder carcinomas, 743489-274-T-PDC renal cell carcinoma, 138582-R-J1 Merkel cell tumor, K60290-347-R-J1 and K57222-313-R-J1-PDC glioblastomas, 653999-131-R-J2-PDC, LG0703-F948-PDC, and 349418-098-R-PDC non-small cell lung carcinomas, 885512-296-R-J2-PDC, 171881-019-R-J1-PDC breast carcinomas and 186277-243-T-J2-PDC and 233499-124-R-J2-PDC colon carcinomas were obtained from the NCI Patient-Derived Models Repository (PDMR, https://pdmr.cancer.gov). The established cell lines NCI/ADR-RES (RRID:CVCL_14520 and OVCAR-5 (RRID:CVCL_1628) ovarian carcinomas, 786-O (RRID:CVCL_1051) and A498 (RRID:CVCL_A498) renal cell carcinoma, NCI-H211 (ATCC, cat. CRL-5824; RRID:CVCL_1529), NCI-H196 (ATCC, cat. CRL-5823, RRID:CVCL_1509), SW 1271 (ATCC, cat. CRL-2177, RRID:CVCL_1716) and NCI-H1876 (ATCC, cat. CRL-5902, RRID:CVCL_1503) small cell lung carcinomas, MDA-MB-231 (RRID:CVCL_0062) and MDA-MB-468 (RRID:CVCL_0419)breast carcinomas (10-12). Pooled donor human umbilical vein endothelial cells (HUVEC, Lonza, cat. CC-2519) and human mesenchymal stem cells (hMSC, Lonza, cat. PT-2501) were purchased from Lonza (Walkersville, MD).
Cell Culture. All cells were maintained in an incubator at 37 degrees C and 5% CO2 with 95% humidity. The PDC lines were cultured according to standard operating procedures established by the NCI PDMR (https://pdmr.cancer.gov). Briefly all PDCs were thawed and cultured in Matrigel-coated flasks prepared with a working solution of 1X Ham's F-12 nutrient mix, without supplementation (Invitrogen, Waltham, MA, cat. 11765054), 100 U/mL penicillin-streptomycin (Invitrogen, cat. 15140122), and 2.5% Matrigel (Corning Inc., Corning, NY, cat. 354248) for the first three passages. […]

SMILES strings stand for the structures. “And” between values parts separate entries of the source, which are not always exact repeats. Identical values can stand only once.
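Note: spheroids also contain HUVEC and human MSCs and agents combined with iadademstat; spheroids exposed to agents for 7 days before readout.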

Turning to `CC(C)c1c(-c2ccccc2)nc2c(C#N)c[nH]n2c1=O`, the viability, T/C was 98.8% and 110% (compound 0.0316 µM); 108% and 110% (compound 0.1 µM); 96.5% and 120% (compound 0.316 µM); 92.4% and 107% (compound 1 µM); 89.5% and 95.7% (compound 3.16 µM); 81.7% and 80.9% (compound 10 µM). For the same molecule, the IC50 (curve of compound) is over 10000 nM.
For `CC1(C)CCC(CN2CCN(c3ccc(C(=O)NS(=O)(=O)c4ccc(NCC5CCOCC5)c([N+](=O)[O-])c4)c(Oc4cnc5[nH]ccc5c4)c3)CC2)=C(c2ccc(Cl)cc2)C1`, the viability, T/C is, setting by setting: (compound 0.0316 µM) 99% and 104%; (compound 0.1 µM) 102% and 108%; (compound 0.316 µM) 107% and 109%; (compound 1 µM) 103% and 90.5%; (compound 3.16 µM) 90.8% and 83%; (compound 10 µM) 28.4% and 20.4%. Further, for the setting “curve of compound”, the half-inhibitory concentration (IC50) is 6730 nM and 5650 nM.
As for `CC1COCCN1c1cc(C2(S(C)(=N)=O)CC2)nc(-c2ccnc3[nH]ccc23)n1` (centres undefined), the viability, T/C was 104% and 97.9% (compound 0.0316 µM); 101% and 108% (compound 0.1 µM); 98.3% and 78.8% (compound 0.316 µM); 71.4% and 44.7% (compound 1 µM); 27.9% and 21.4% (compound 3.16 µM); 14.6% and 8.79% (compound 10 µM). In addition, under “curve of compound”, the half-inhibitory concentration (IC50) is 1760 nM and 853 nM.
For `CCN(c1cc(-c2ccc(CN3CCOCC3)cc2)cc(C(=O)NCc2c(C)cc(C)[nH]c2=O)c1C)C1CCOCC1`, the viability, T/C is 100% and 111% (compound 0.00949 µM); 105% (compound 0.03 µM); 96.9% and 101% (compound 0.0949 µM); 96.7% and 97.5% (compound 0.3 µM); 94.5% and 98.9% (compound 0.949 µM); 91.2% and 99% (compound 3 µM). The IC50 (curve of compound) was over 3000 nM.
For the molecule `COc1cc(C2c3cc4c(cc3C(OC3OC5COC(C)OC5C(O)C3O)C3COC(=O)C23)OCO4)cc(OC)c1O` (centres undefined), the viability, T/C (compound 0.00949 µM) is 97.2% and 106%; the viability, T/C (compound 0.03 µM) was 84.8% and 76%; the viability, T/C (compound 0.0949 µM) was 34.7% and 35.1%; the viability, T/C (compound 0.3 µM) is 20.9% and 20.7%; the viability, T/C (compound 0.949 µM) is 19.2% and 17.7%; the viability, T/C (compound 3 µM) was 8.35% and 8.98%. The IC50 (curve of compound) was 67.5 nM and 63.9 nM.
Turning to `COc1ccc([C@@H](O)c2cc(-c3ncnc4cc(N5CCOCC5)ccc34)c(F)cc2Cl)nn1`, the viability, T/C (compound 0.0316 µM) is 102%; the viability, T/C (compound 0.1 µM) is 95.8% and 99.8%; the viability, T/C (compound 0.316 µM) is 86.6% and 81.7%; the viability, T/C (compound 1 µM) was 69.1% and 64.7%; the viability, T/C (compound 3.16 µM) is 50.8% and 45.9%; the viability, T/C (compound 10 µM) is 32.3% and 27.2%. For the same molecule, the IC50 (curve of compound) is 3240 nM and 2340 nM.
For the molecule `NC1CC1c1ccc(-c2cccc(O)c2)cc1` (centres undefined), the viability, T/C is, setting by setting: (compound 0.1 µM) 86.9% and 102% and 91.3%; (compound 3.16 µM) 73.9% [middle of 23 runs]. Moreover, the IC50 (compound alone, run of 12/07/2021) is over 10000 nM.
`NC1CCC(NC2CC2c2ccccc2)CC1` (centres undefined): the viability, T/C is, setting by setting: (compound 0.1 µM) 78.6% [middle of 25 runs]; (compound 0.316 µM) 86.7% and 75.8% and 76.6%; (compound 1 µM) 75.9% [middle of 25 runs]; (compound 3.16 µM) 73.6% [middle of 24 runs]; (compound 10 µM) 72.2% [middle of 23 runs]. Besides, under “compound alone, run of 11/29/2021”, the IC50 is over 10000 nM.
With `NS(=O)(=O)OCC1CC(n2ccc3c(NC4CCc5ccccc54)ncnc32)CC1O` (centres undefined), the viability, T/C was 103% and 106% (compound 0.00949 µM); 106% and 112% (compound 0.03 µM); 93.4% and 94% (compound 0.0949 µM); 54.2% and 43.8% (compound 0.3 µM); 12.5% and 10.2% (compound 0.949 µM); 15.6% and 11.9% (compound 3 µM). Also, where the note is “curve of compound”, the IC50 is 326 nM and 256 nM.
Consider `Nc1ccccc1NC(=O)c1ccc(CNC(=O)OCc2cccnc2)cc1`, for which the viability, T/C by setting is: (compound 0.00949 µM) 112% and 111%; (compound 0.03 µM) 107% and 111%; (compound 0.0949 µM) 96.8% and 88.3%; (compound 0.3 µM) 63.3% and 59.8%; (compound 0.949 µM) 37.7% and 37.5%; (compound 3 µM) 9.59% and 7.01%. Also, where the note is “curve of compound”, the IC50 was 555 nM and 507 nM.
With `O=C(C=Cc1cccc(S(=O)(=O)Nc2ccccc2)c1)NO`, the viability, T/C reads like this: (compound 0.00949 µM) 95.5% and 107%; (compound 0.03 µM) 89.1% and 92.1%; (compound 0.0949 µM) 71% and 70%; (compound 0.3 µM) 46.1% and 42.8%; (compound 0.949 µM) 26.1% and 24.2%; (compound 3 µM) 4.98% and 3.24%. Also, the IC50 (curve of compound) is 273 nM and 237 nM.
For `O=C(c1cc(Cc2n[nH]c(=O)c3ccccc23)ccc1F)N1CCN(C(=O)C2CC2)CC1`, the viability, T/C is 100% and 104% (compound 0.0316 µM); 100% and 104% (compound 0.1 µM); 107% and 96.3% (compound 0.316 µM); 87.4% and 80.7% (compound 1 µM); 64.5% and 48.9% (compound 3.16 µM); 40.4% and 31.9% (compound 10 µM). Besides, where the note is “curve of compound”, the 50% inhibitory concentration (IC50) was 6260 nM and 3090 nM.
